The target in experiment [1] is CLK2 kinase (Homo sapiens, UniProt P49760). Description: CLK2 kinase activity assay (Z-lyte FRET).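 Note: FRET read-out as coumarin to fluorescein emission ratio, unphosphorylated peptide as 0% and phosphorylated peptide as 100% controls, duplicate reactions, non-linear regression fit of dose-response curves.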 The class given is biochemical. To be noted: Z-lyte Ser/Thr 6 peptide, 60 μM ATP, 1 h at room temperature.
Description: This is a non-radioactive assay using fluorescence resonance energy transfer (FRET) between coumarin and fluorescein to detect kinase activity which is represented as a ratio of coumarin emission/fluorescein emission.
The mixture was allowed to incubate with the representative compounds for one hour at room temperature. All reactions were performed in duplicate. Unphosphorylated (“0% Control”) and phosphorylated (“100% control”) forms of Ser/Thr 6 served as control reactions. Additionally, an 11-point dose-response curve of Staurosporine (1 μM top) was run to serve as a positive compound control.
After incubation, Development Reagent A was diluted in Development Buffer then added to the reaction and allowed to further incubate for one hour at room temperature.
Dose-response curves were generated and inhibitory concentration (IC50) values were calculated using non-linear regression curve fit in the Dotmatics' Studies Software (Bishops Stortford, UK).
Experiment [2] deals with CLK3 kinase (Homo sapiens, UniProt P49761). In words: CLK3 kinase activity assay (Z-lyte FRET).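 Note: kinase activity read as coumarin/fluorescein emission ratio by FRET, unphosphorylated peptide as 0% and phosphorylated peptide as 100% control, values from non-linear regression of dose-response curves.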 To be noted: Z-lyte Ser/Thr 18 peptide, 156 μM ATP, 1 h at room temperature. Type of experiment: biochemical.
Sequence of CLK3 kinase (P49761 whole entry): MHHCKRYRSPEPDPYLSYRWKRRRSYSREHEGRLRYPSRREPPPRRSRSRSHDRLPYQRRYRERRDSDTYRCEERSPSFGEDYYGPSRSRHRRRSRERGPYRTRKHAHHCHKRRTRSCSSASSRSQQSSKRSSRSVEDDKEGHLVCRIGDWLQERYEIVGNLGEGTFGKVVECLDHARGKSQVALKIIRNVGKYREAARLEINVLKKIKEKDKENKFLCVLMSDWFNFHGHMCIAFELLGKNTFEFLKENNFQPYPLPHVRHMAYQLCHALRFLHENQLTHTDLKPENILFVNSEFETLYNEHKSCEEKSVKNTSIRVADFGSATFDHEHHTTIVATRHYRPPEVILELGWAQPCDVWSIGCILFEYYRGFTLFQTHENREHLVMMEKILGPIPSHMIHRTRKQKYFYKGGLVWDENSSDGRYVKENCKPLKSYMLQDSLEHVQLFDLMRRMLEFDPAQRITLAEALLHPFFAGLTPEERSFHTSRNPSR
The test system of experiment [3] is primary human mesenchymal stem cells (hMSCs). In words: Chondrogenesis screening using primary human mesenchymal stem cells. The class given is cell-based. To be noted: hMSC chondrogenesis; for EC50: concentration required to induce 50% levels of chondrogenesis with TGF-β3 as positive control, read-out: Conc (nM) of 50% TGF-β3 activity; for Emax: read-out: Max. Activity as % TGF-β3 activity. Summed up:
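Derived values are EC50 for 50% chondrogenesis, maximal activity and the dose giving it. These come from nodule area in passage 3–6 primary hMSCs, expressed as fold change over the mean of 3 same-plate DMSO wells, 2–3 replicates per concentration. TGF-β3 served as positive control.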

Experiment [4] relates to Wnt pathway activity (SW480 colon carcinoma cells stably expressing the Sp5-Luc reporter). In words: Wnt pathway activity screening assay (Sp5-Luc reporter gene assay). The settings on record: SW480 cells stably expressing Sp5-Luc reporter, 10-point dose-response from 10 μM, 36 to 48 hours.
Description: The screening assay for Wnt pathway activity is described as follows.
SW480 colon carcinoma cells were transduced with a lentiviral vector expressing luciferase with a human Sp5 promoter consisting of a sequence of eight TCF/LEF binding sites. […] These stably transduced SW480 cells were expanded in cell culture and used for all further screening activities. Each compound was dissolved in DMSO as a 10 mM stock and used to prepare compound source plates. Serial dilution (1:3, 10-point dose-response curves starting from 10 μM) and compound transfer was performed using the ECHO 550 (Labcyte, Sunnyvale, Calif.) into 384-well white solid bottom assay plates (Greiner Bio-One) with appropriate DMSO backfill for a final DMSO concentration of 0.1%. […] Following incubation, 15 μl of BriteLite Plus luminescence reagent (Perkin Elmer) was added to each well of the 384-well assay plates. The plates were placed on an orbital shaker for 2 min and then luminescence was quantified using the Envision (Perkin Elmer) plate reader.
[5] abbreviates: Homo sapiens, Mesenchymal stem cells.
[6] abbreviates: Homo sapiens, Mesenchymal stem cells, maximum activity relative to TGF-β3 (10 ng/mL) positive control.

Where two headings read alike, the source gives them in different places.

Sequence of CLK2 kinase (P49760 whole entry): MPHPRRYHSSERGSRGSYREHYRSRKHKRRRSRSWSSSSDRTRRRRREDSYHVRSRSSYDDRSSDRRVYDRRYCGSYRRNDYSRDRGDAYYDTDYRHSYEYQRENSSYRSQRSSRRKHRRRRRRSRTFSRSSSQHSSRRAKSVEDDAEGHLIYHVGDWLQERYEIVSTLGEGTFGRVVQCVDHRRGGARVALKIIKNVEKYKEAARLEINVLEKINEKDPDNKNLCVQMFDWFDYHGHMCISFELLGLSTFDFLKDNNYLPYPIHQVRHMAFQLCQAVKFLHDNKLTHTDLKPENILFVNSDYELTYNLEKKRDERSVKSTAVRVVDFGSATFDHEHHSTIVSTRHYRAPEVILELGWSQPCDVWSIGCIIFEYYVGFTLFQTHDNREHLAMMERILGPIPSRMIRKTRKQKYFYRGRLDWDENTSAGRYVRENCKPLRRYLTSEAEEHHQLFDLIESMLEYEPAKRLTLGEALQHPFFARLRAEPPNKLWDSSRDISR

Turning to `O=C(Nc1cncc(-c2cc3c(-c4cc5cnccc5[nH]4)n[nH]c3cn2)c1)C1CCCCC1` [compound 433], the EC50 in experiment [1] was found to be 3 nM; in experiment [2], 62 nM; in experiment [3] (setting [5]) it was 30 nM; in experiment [4] (Homo sapiens, SW480, Table 4), 1620 nM. Also, in experiment [3] (setting [6]), the Emax is 59.4%.

Take `Cn1cc(-c2ccc3[nH]nc(-c4cc5c(-c6cccnc6)cncc5[nH]4)c3c2)cn1` [compound 375]: the EC50 in experiment [1] turned out to be 6 nM; in experiment [2], 100 nM; in experiment [4] (Homo sapiens, SW480, Table 4), 250 nM. Moreover, the Emax in experiment [3] (setting [6]) came to 65.2%.

With `CCCC(=O)Nc1cncc(-c2ccc3[nH]nc(-c4nc5c(-c6ccsc6)cncc5[nH]4)c3c2)c1` [compound 246], the EC50 came to 3 nM in experiment [1]; 21 nM in experiment [2]; 61.5 nM in experiment [4] (Homo sapiens, SW480, Table 4). In addition, the Emax in experiment [3] (setting [6]) came to 42%.

On to `CCCC(=O)Nc1cncc(-c2ccc3[nH]nc(-c4nc5c(-c6ccsc6)cncc5[nH]4)c3n2)c1` [compound 247], for which the EC50 in experiment [1] is 2 nM; in experiment [2] it was 48 nM; in experiment [3] (setting [5]), 20.6 nM; in experiment [4] (Homo sapiens, SW480, Table 4), 3640 nM. For the same compound, the Emax in experiment [3] (setting [6]) was 58.4%.

Take `c1ccc2[nH]c(-c3n[nH]c4ncc(-c5cncc(CN6CCCC6)c5)cc34)cc2c1` [compound 444]: the EC50 in experiment [1] amounted to 9 nM; in experiment [2], 362 nM; in experiment [3] (setting [5]) it was 10 nM; in experiment [4] (Homo sapiens, SW480, Table 4), 1410 nM. The Emax in experiment [3] (setting [6]) was 97.6%.

As to `CCC(=O)Nc1cncc(-c2cnc3[nH]nc(-c4cc5c(-c6cccc(F)c6)cncc5[nH]4)c3c2)c1` [compound 305], the EC50 in experiment [1] was 3 nM; in experiment [2], 33 nM; in experiment [4] (Homo sapiens, SW480, Table 4) it was 246 nM. For the same compound, in experiment [3] (setting [6]), the Emax worked out at 113%.

Consider `CN(C)Cc1cncc(-c2ccc3[nH]nc(-c4cc5c(-c6ccncc6)cncc5[nH]4)c3c2)c1` [compound 398], for which the EC50 in experiment [1] amounted to 3 nM; in experiment [2], 56 nM; in experiment [4] (Homo sapiens, SW480, Table 4), 1060 nM. For the same compound, the Emax in experiment [3] (setting [6]) was found to be 17.8%.

For the compound `CCCC(=O)Nc1cncc(-c2ccc3[nH]nc(-c4cc5c(-c6ccncc6)cncc5[nH]4)c3c2)c1` [compound 383], the EC50 is 3 nM in experiment [1]; 46 nM in experiment [2]; greater than 10000 nM in experiment [4] (Homo sapiens, SW480, Table 4). In addition, in experiment [3] (setting [6]), the Emax turned out to be 124%.

Consider `Nc1cncc(-c2ccc3[nH]nc(-c4cc5c(-c6ccccn6)ccnc5[nH]4)c3c2)c1` [compound 407], for which the EC50 in experiment [1] came to 3 nM; in experiment [2], 19 nM; in experiment [4] (Homo sapiens, SW480, Table 4) it was 22.4 nM. Besides, the Emax in experiment [3] (setting [6]) is 46.1%.

For the compound `CCNCc1cncc(-c2cnc3[nH]nc(-c4cc5c(-c6ccccc6F)cncc5[nH]4)c3c2)c1` [compound 334], the EC50 in experiment [1] was determined as 2 nM; in experiment [2], 89 nM; in experiment [4] (Homo sapiens, SW480, Table 4), 2300 nM. For the same compound, in experiment [3] (setting [6]), the Emax came to 37.3%.

In the case of `CC(C)CC(=O)Nc1cncc(-c2ccc3[nH]nc(-c4cc5c(-c6cc(F)cc(CNS(C)(=O)=O)c6)nccc5[nH]4)c3n2)c1` [compound 525], the EC50 in experiment [1] was found to be 8 nM; in experiment [2], 38 nM; in experiment [4] (Homo sapiens, SW480, Table 4), 479 nM. Further, in experiment [3] (setting [6]), the Emax came to 33.1%.

As for `c1cncc(-c2cnc3[nH]nc(-c4nc5c(-c6cccnc6)cncc5[nH]4)c3c2)c1` [compound 181], the EC50 was 15 nM in experiment [1]; 17 nM in experiment [2]; greater than 10000 nM in experiment [4] (Homo sapiens, SW480, Table 4). Also, the Emax in experiment [3] (setting [6]) was 62.9%.

As for `CS(=O)(=O)NCc1cc(F)cc(-c2nccc3[nH]c(-c4n[nH]c5ccc(-c6cncnc6)cc45)nc23)c1` [compound 293], the EC50 in experiment [1] was determined as 16 nM; in experiment [2] it was 186 nM; in experiment [3] (setting [5]) it was 30 nM; in experiment [4] (Homo sapiens, SW480, Table 4) it was 40.5 nM. Besides, in experiment [3] (setting [6]), the Emax was 73.1%.

As for `Cc1cn(-c2nccc3[nH]c(-c4n[nH]c5ccc(-c6cncc(NC(=O)CC(C)C)c6)nc45)nc23)cn1` [compound 226], the EC50 in experiment [1] stood at 4 nM; in experiment [2], 116 nM; in experiment [3] (setting [5]), 30 nM; in experiment [4] (Homo sapiens, SW480, Table 4), 2900 nM. Further, the Emax in experiment [3] (setting [6]) is 69.3%.

For `COc1cncc(-c2ccc3[nH]nc(-c4cc5c(-c6ccoc6)nccc5[nH]4)c3c2)c1` [compound 504], the EC50 in experiment [1] turned out to be 6 nM; in experiment [2] it was 117 nM; in experiment [4] (Homo sapiens, SW480, Table 4), 643 nM. In addition, the Emax in experiment [3] (setting [6]) came to 35.5%.

`Fc1cccc(-c2cncc3[nH]c(-c4n[nH]c5ccc(-c6cncc(CN7CCC(F)(F)C7)c6)cc45)nc23)c1` [compound 142]: the EC50 in experiment [1] is 21 nM; in experiment [2], 90 nM; in experiment [3] it was 10 nM; in experiment [4] (Table 4), 19.1 nM. The “Max. Activity as % TGF-β3 activity” value in experiment [3] (maximum activity relative to TGF-β3 (10 ng/mL) positive control) amounted to 85.77%.

For the compound `CC(C)Nc1cncc(-c2cnc3[nH]nc(-c4nc5c(-c6cc(F)cc(NCCN(C)C)c6)nccc5[nH]4)c3c2)c1` [compound 283], the EC50 in experiment [1] amounted to 4 nM; in experiment [2] it was 33 nM; in experiment [3] (setting [5]), 30 nM; in experiment [4] (Homo sapiens, SW480, Table 4), 154 nM. Further, in experiment [3] (setting [6]), the Emax worked out at 82.9%.

As for `c1cc2[nH]c(-c3n[nH]c4ccc(-c5cncc(CN6CCCCC6)c5)cc34)cc2cn1` [compound 448], the EC50 in experiment [1] came out at 3 nM; in experiment [2] it was 28 nM; in experiment [4] (Homo sapiens, SW480, Table 4) it was 685 nM. In experiment [3] (setting [6]), the Emax turned out to be 122%.

`CN(C)Cc1cncc(-c2cnc3[nH]nc(-c4nc5c(-c6cc(F)cc(N7CCOCC7)c6)cncc5[nH]4)c3c2)c1` [compound 294]: the EC50 in experiment [1] came to 1 nM; in experiment [2], 25 nM; in experiment [3] (setting [5]) it was 30 nM; in experiment [4] (Homo sapiens, SW480, Table 4) it was 21 nM. Also, the Emax in experiment [3] (setting [6]) came out at 114%.

In the case of `Cn1cc(-c2cc3c(-c4nc5c(-c6cccc(F)c6)cncc5[nH]4)n[nH]c3cn2)cn1` [compound 157], the EC50 was determined as 2 nM in experiment [1]; 416 nM in experiment [2]; 100 nM in experiment [3] (setting [5]); 70 nM in experiment [4] (Homo sapiens, SW480, Table 4). The Emax in experiment [3] (setting [6]) was determined as 71%.

Regarding `Cc1ccncc1-c1cnc2[nH]nc(-c3cc4c(-c5cccnc5)cncc4[nH]3)c2c1` [compound 345], the EC50 in experiment [1] turned out to be 3 nM; in experiment [2] it was 107 nM; in experiment [4] (Homo sapiens, SW480, Table 4), 2250 nM. Also, the Emax in experiment [3] (setting [6]) came to 17.4%.

For `c1cc(-c2cncc3[nH]c(-c4n[nH]c5ccc(-c6cncc(CN7CCCCC7)c6)nc45)cc23)ccn1` [compound 403], the EC50 is 6 nM in experiment [1]; 306 nM in experiment [2]; 10 nM in experiment [3] (setting [5]); greater than 10000 nM in experiment [4] (Homo sapiens, SW480, Table 4). The Emax in experiment [3] (setting [6]) is 97.1%.

Consider `CC(C)Nc1cncc(-c2ccc3[nH]nc(-c4nc5c(-c6ccccc6F)cncc5[nH]4)c3c2)c1` [compound 177], for which the EC50 in experiment [1] is 6 nM; in experiment [2] it was 209 nM; in experiment [4] (Homo sapiens, SW480, Table 4) it was 1 nM. Also, the Emax in experiment [3] (setting [6]) was found to be 56.8%.

With `Cc1ccncc1-c1cc2c(-c3cc4cnccc4[nH]3)n[nH]c2cn1` [compound 416], the EC50 in experiment [1] came out at 3 nM; in experiment [2], 61 nM; in experiment [3] (setting [5]), 10 nM; in experiment [4] (Homo sapiens, SW480, Table 4), 389 nM. In addition, the Emax in experiment [3] (setting [6]) worked out at 61.4%.

Regarding `Cc1ccncc1-c1ccc2[nH]nc(-c3nc4c(-c5ccsc5)nccc4[nH]3)c2c1` [compound 242], the EC50 in experiment [1] turned out to be 15 nM; in experiment [2], 76 nM; in experiment [3] (setting [5]), 10 nM; in experiment [4] (Homo sapiens, SW480, Table 4) it was 18.9 nM. Moreover, in experiment [3] (setting [6]), the Emax was 156%.

The values are drawn from patent US20230000842A1, “METHODS OF TREATING CARTILAGE DISORDERS THROUGH INHIBITION OF CLK AND DYRK” (SAMUMED, LLC, priority 2019, published 2023).
